Results as given in patent US11253524B2 (Gilead Sciences, Inc., priority 2018, dated 2022).

Experiments:
[1] = target: T1, OATP1B3 (Homo sapiens, UniProt Q9NPD5); assay: OATP1B3 inhibition assay using Fluo-3 as probe substrate, CHO cells; format: cell-based; parameters: expressed in transfected cells; host or cells: CHO cells; conditions: for Maximum inhibition at highest test conc. (% of control) / inhibition at 1 h, 100 µM: OATP1B3, Fluo-3, at 100 μM; for IC50 (μM): OATP1B3, Fluo-3, NIO = no interaction observed; for inhibition at 1 h, 100 µM: human, CHO cells transfected with human OATP1B3, pH 7.4, probe Fluo-3 (2 μM), read-out: Maximum inhibition at highest test conc. (% of control)
T1 sequence (Q9NPD5 1-702): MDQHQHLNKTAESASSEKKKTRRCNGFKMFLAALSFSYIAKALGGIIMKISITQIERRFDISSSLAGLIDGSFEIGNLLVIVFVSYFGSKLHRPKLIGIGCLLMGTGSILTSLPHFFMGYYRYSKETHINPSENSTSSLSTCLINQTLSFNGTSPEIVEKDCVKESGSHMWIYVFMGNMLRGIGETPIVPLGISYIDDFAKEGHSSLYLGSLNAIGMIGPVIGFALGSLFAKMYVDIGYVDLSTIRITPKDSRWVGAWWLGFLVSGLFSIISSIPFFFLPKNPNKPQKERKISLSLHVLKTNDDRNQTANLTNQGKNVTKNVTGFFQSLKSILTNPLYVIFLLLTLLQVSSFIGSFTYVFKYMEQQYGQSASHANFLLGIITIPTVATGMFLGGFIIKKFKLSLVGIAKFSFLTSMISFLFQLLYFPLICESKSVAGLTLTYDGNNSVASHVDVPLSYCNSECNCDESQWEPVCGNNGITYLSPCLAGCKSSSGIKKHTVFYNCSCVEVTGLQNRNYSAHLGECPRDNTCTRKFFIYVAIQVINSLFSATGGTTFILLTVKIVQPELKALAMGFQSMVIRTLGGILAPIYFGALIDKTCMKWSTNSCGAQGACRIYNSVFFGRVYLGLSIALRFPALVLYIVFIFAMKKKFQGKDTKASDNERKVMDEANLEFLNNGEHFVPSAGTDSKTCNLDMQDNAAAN
Protocol: Chinese Hamster Ovary (CHO) cells, either wild type or transfected with the genes encoding human OATP1B1 or OATP1B3, were maintained in Dulbecco's Modification of Eagle's Medium (DMEM) containing 1,000 mg/L D-glucose, L-glutamine, 25 mM HEPES buffer, and 110 mg/L sodium pyruvate, 1% Pen/Strep, 10% fetal bovine serum, 0.05 mg/mL L-proline and 0.5 mg/mL of geneticin G-418. Cells were maintained in incubators set at 37° C., 90% humidity and 5% CO2. OATP1B1 or OATP1B3 overexpressing CHO cells were seeded in BioCoat Poly-D-Lysine coated 96 well black cell culture plates with clear bottoms at a density of 1×10^5 cells/well. Sodium butyrate (10 mM) was added to the OATP1B1 and OATP1B3 cells to increase the protein expression level, and the cells were grown to confluence overnight. The assay buffer contained 142 mM NaCl, 5 mM KCl, 1 mM KH2PO4, 1.2 mM MgSO4, 1.5 mM CaCl2, 5 mM Glucose and 12.5 mM HEPES (pH 7.4). After removal of the media and before adding test compounds, the cells were washed twice with 37° C. assay buffer followed by a 0.5 h pre-incubation with assay buffer. Test compounds were serially diluted in DMSO at 250-fold of final test concentrations to create the compound spiking solutions. Compounds were then spiked into assay buffer containing 2 μM Fluo-3 and incubated with cells for 1 h. Following removal of assay buffer containing Fluo-3 and test compound, cells were washed 3 times with 200 μl of ice cold assay buffer and then lysed at room temperature for 15 minutes in a lysis buffer containing […] in a 1 mM CaCl2 solution. Substrate accumulations were determined for Fluo-3 fluorescence at an excitation of 485 nm and emission of 530 nm.
Percent inhibition was calculated according to the following equation: % inhibition=[1−{[OATP]i−[WT]ni}/{[OATP]ni−[WT]ni}]*100 where: [OATP]i represent the substrate accumulation in the presence of test compound for either OATP1B1, OATP1B3, or OATP2B1 cells; [OATP]ni represents the substrate accumulation in the absence of test compound for either OATP1B1, OATP1B3, or OATP2B1 cells, respectively; and [WT]ni represents the substrate accumulation in the absence of test compound for wild type cells or Mock cells, respectively. IC50 Determination in Transporter Assays
IC50 was determined according to the procedures described in Example 5. […] Results are reported as NIO (no interaction observed).

[2] = In vivo BIC metabolism, plasma profile after oral [14C]BIC, monkey; parameters: species or system Cynomolgus Monkey; conditions: monkeys, 0 to 72 hours post dose, ND = not detected
Source text: (§1) Metabolic pathways included hydroxylation, oxidative defluorination, direct glucuronidation, and oxidation followed by phase II conjugation. In the monkey, BIC was metabolized through the oxidative pathways to a greater extent compared to rat and human.

[3] = In vivo BIC metabolism, plasma profile after oral [14C]BIC, rat; parameters: species or system Wistar Han Rat; conditions: rats, 0 to 168 hours post dose, ND = not detected
Source text: as §1

Compound	Maximum inhibition at highest test conc. (% of control) ([1]; 100 µM)	IC50 (μM) [1]	inhibition at 1 h, 100 µM [1]	% of Total Radioactivity in AUC Pooled Plasma [2]	Maximum inhibition at highest test conc. (% of control) [1]	% of Total Radioactivity in AUC Pooled Plasma [3]
O=C(NCc1c(F)cc(F)cc1F)c1cn2c(c(O[C@@H]3O[C@H](C(=O)O)[C@@H](O)[C@H](O)[C@H]3O)c1=O)C(=O)N1[C@H]3CC[C@H](C3)O[C@@H]1C2 [Metabolite M15]	minimal to no inhibition	NIO	0%	0.55%		
O=C(NCc1c(F)cc(F)c(OS(=O)(=O)O)c1F)c1cn2c(c(O)c1=O)C(=O)N1C(C2)O[C@@H]2CC[C@H]1C2 (stereo partly drawn) [Metabolite M20]		NIO	18%	0.77%	minimal to no inhibition	11.3%
O=C(NCc1c(F)cc(F)cc1F)c1cn2c(c(O)c1=O)C(=O)N1[C@H]3CC[C@H](C3)O[C@@H]1C2 [BIC, bictegravir, reference compound]				80.2%		76.5%
O=C(NCc1c(F)cc(F)c(O)c1F)c1cn2c(c(O)c1=O)C(=O)N1[C@H]3CC[C@H](C3)O[C@@H]1C2 [Metabolite M23]		NIO	20%		minimal to no inhibition	2.36%
